Measured values as given in patent US20130102631A1, “NOVEL MICROBIOCIDAL DIOXIME ETHER DERIVATIVES” (SYNGENTA CROP PROTECTION LLC, priority 2010, published 2013).

How the values were obtained:
[1] = system: Mycosphaerella arachidis (Cercospora arachidicola); test: Mycosphaerella arachidis (Cercospora arachidicola) / liquid culture (early leaf spot); format: cell-based; details: at ≦200 ppm, liquid culture PDB, inhibition of growth photometrically 4-5 days after application, read-out: control of Mycosphaerella arachidis
Summary of the method: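 Cryostored Cercospora arachidicola conidia were mixed into potato dextrose broth and added to test compound in DMSO. Incubation was at 24° C. Growth inhibition was read photometrically 4-5 days after application.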

[2] = system: Phaeosphaeria nodorum (Septoria nodorum); test: Phaeosphaeria nodorum (Septoria nodorum) / wheat / leaf disc preventative (glume blotch); format: in vivo; details: Parastagonospora nodorum, foliar, wheat leaf segments cv Kanzler, inoculated 2 days after application, assessed 5-7 days after application
Summary of the method: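 Wheat cv Kanzler leaf segments on agar were sprayed with formulated compound at 200 ppm and inoculated with spores 2 days later. Incubation at 20 °C, 75% RH, 12/12 h light/dark; percent disease control versus untreated scored 5–7 days after application.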

[3] = system: Mycosphaerella graminicola (Septoria tritici); test: Mycosphaerella graminicola (Septoria tritici) / liquid culture (Septoria blotch); format: cell-based; details: Zymoseptoria tritici; at ≦200 ppm, liquid culture PDB, inhibition of growth photometrically 4-5 days after application; read-out: control of Mycosphaerella graminicola
[4] = system: Blumeria graminis f. sp. tritici (Erysiphe graminis f. sp. tritici); test: Blumeria graminis f. sp. tritici / wheat / leaf disc preventative (powdery mildew on wheat); format: in vivo; details: foliar, wheat leaf segments cv. Kanzler, inoculated 1 day after application, assessed 6-8 days after application
Summary of the method: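 Wheat cv. Kanzler leaf segments on agar sprayed with formulated compound at 200 ppm, inoculated 1 day later with powdery mildew, incubated at 20° C, 60% RH (24 h dark then 12 h/12 h). Percent disease control versus untreated scored 6-8 days after application.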

[5] = system: Thanatephorus cucumeris (Rhizoctonia solani); test: Thanatephorus cucumeris (Rhizoctonia solani) / liquid culture (foot rot, damping-off); format: cell-based; details: at ≦200 ppm, liquid culture PDB, inhibition of growth photometrically 3-4 days after application, read-out: control of Thanatephorus cucumeris
Procedure: Thanatephorus cucumeris (Rhizoctonia solani)/Liquid Culture (Foot Rot, Damping-Off Mycelia fragments of a newly grown liquid culture of the fungus are directly mixed into nutrient broth (PDB potato dextrose broth). After placing a DMSO solution of the test compounds into a 96-well microtiter, the nutrient broth containing the fungal material was added. The test plates were incubated at 24° C. and the inhibition of growth was determined photometrically 3-4 days after application. […]-2.508 5.561; 2.561; P.57; 2.513; 2.559; 2.558; 2.553; 2.533; 2.530; 2.526; 2.519; 2.517; 2.516; 2.514; 2.512; 2.514

COc1cccc(/C(C)=N/OCC(C)(C)CO/N=C2\CCCc3ccc(C)nc32)n1 [Compound 2.374]
≥ 80%: inhibition of growth at up to 200 µg/mL [1] | pest or weed control at 200 ppm [2] | inhibition of growth at up to 200 µg/mL [3] | pest or weed control at 200 ppm [4]

C/C(=N\OCC(C)(C)CO/N=C1\CCCc2ccc(C)nc21)c1ccc2ccccc2n1 [Compound 2.512]
≥ 80%: inhibition of growth at up to 200 µg/mL [1] | pest or weed control at 200 ppm [2] | inhibition of growth at up to 200 µg/mL [3] | pest or weed control at 200 ppm [4] | inhibition of growth at up to 200 µg/mL [5]

C/C(=N\OCC(C)(C)CO/N=C1\CCCc2ccc(C)nc21)c1ccc2c(n1)CCCC2 [Compound 2.513]
≥ 80%: inhibition of growth at up to 200 µg/mL [1] | pest or weed control at 200 ppm [2] | inhibition of growth at up to 200 µg/mL [3] | pest or weed control at 200 ppm [4] | inhibition of growth at up to 200 µg/mL [5]

C/C(=N\OCCCO/N=C1\CCCc2ccc(C)nc21)c1cccc(-c2ccccc2)n1 [Compound 2.514]
≥ 80%: inhibition of growth at up to 200 µg/mL [1] | pest or weed control at 200 ppm [2] | inhibition of growth at up to 200 µg/mL [3] | pest or weed control at 200 ppm [4] | inhibition of growth at up to 200 µg/mL [5]

CC/C(=N\OCC(C)(C)CO/N=C1\CCCc2ccc(C)nc21)c1ccccn1 [Compound 2.516]
≥ 80%: inhibition of growth at up to 200 µg/mL [1] | pest or weed control at 200 ppm [2] | inhibition of growth at up to 200 µg/mL [3] | pest or weed control at 200 ppm [4] | inhibition of growth at up to 200 µg/mL [5]

C/C(=N/OCC(C)(C)CO/N=C1\CCCc2ccc(C)nc21)c1ccccn1 [Compound 2.519]
≥ 80%: inhibition of growth at up to 200 µg/mL [1] | pest or weed control at 200 ppm [2] | inhibition of growth at up to 200 µg/mL [3] | pest or weed control at 200 ppm [4] | inhibition of growth at up to 200 µg/mL [5]

Cc1ccc2c(n1)/C(=N/OCC(C)(C)CO/N=C/c1cccc(Oc3ccccc3)n1)CCC2 [Compound 2.530]
≥ 80%: inhibition of growth at up to 200 µg/mL [1] | pest or weed control at 200 ppm [2] | inhibition of growth at up to 200 µg/mL [3] | pest or weed control at 200 ppm [4] | inhibition of growth at up to 200 µg/mL [5]

Cc1ccc(O)c(/C=N/OCC(C)(C)CO/N=C2\CCCc3ccc(C)nc32)n1 [Compound 2.533]
≥ 80%: inhibition of growth at up to 200 µg/mL [1] | pest or weed control at 200 ppm [2] | inhibition of growth at up to 200 µg/mL [3] | pest or weed control at 200 ppm [4] | inhibition of growth at up to 200 µg/mL [5]

C/C(=N\OCC(C)(C)CO/N=C1\CCCc2ccc(Cl)nc21)c1cc(C)cc(C)n1 [Compound 2.555]
≥ 80%: inhibition of growth at up to 200 µg/mL [1] | pest or weed control at 200 ppm [2] | inhibition of growth at up to 200 µg/mL [3] | pest or weed control at 200 ppm [4]

C/C(=N\OCC(C)(C)CO/N=C1\CCCc2ccc(Oc3ccccc3)nc21)c1cc(C)cc(C)n1 [Compound 2.556]
≥ 80%: inhibition of growth at up to 200 µg/mL [1] | pest or weed control at 200 ppm [2] | inhibition of growth at up to 200 µg/mL [3] | pest or weed control at 200 ppm [4]

C/C(=N\OCC(C)(C)CO/N=C1\CCCc2ccc(-c3cccc(C)n3)nc21)c1cc(C)cc(C)n1 [Compound 2.559]
≥ 80%: inhibition of growth at up to 200 µg/mL [1] | pest or weed control at 200 ppm [2] | inhibition of growth at up to 200 µg/mL [3] | pest or weed control at 200 ppm [4] | inhibition of growth at up to 200 µg/mL [5]

C/C(=N\OCC(C)(C)CO/N=C1\CCCc2c1nc1ccccc1c2C)c1cc(C)cc(C)n1 [Compound 2.561]
≥ 80%: inhibition of growth at up to 200 µg/mL [1] | pest or weed control at 200 ppm [2] | inhibition of growth at up to 200 µg/mL [3] | pest or weed control at 200 ppm [4] | inhibition of growth at up to 200 µg/mL [5]

C/C(=N\OCC1(CO/N=C2\CCCc3c2nc2ccccc2c3C)CC1)c1cc(C)cc(C)n1 [Compound 5.561]
≥ 80%: inhibition of growth at up to 200 µg/mL [1] | pest or weed control at 200 ppm [2] | inhibition of growth at up to 200 µg/mL [3] | pest or weed control at 200 ppm [4] | inhibition of growth at up to 200 µg/mL [5]

C/C(=N\OCC(C)(C)CO/N=C1\CCCc2ccc(C)nc21)c1cccc(C)n1 [E/E-2.002]
≥ 80%: inhibition of growth at up to 200 µg/mL [1] | pest or weed control at 200 ppm [2] | inhibition of growth at up to 200 µg/mL [3] | pest or weed control at 200 ppm [4] | inhibition of growth at up to 200 µg/mL [5]

C/C(=N\OCC(C)(C)CO/N=C1\CCCc2ccc(C)nc21)c1cc(C)cc(C)n1 [E/E-2.168]
≥ 80%: inhibition of growth at up to 200 µg/mL [1] | pest or weed control at 200 ppm [2] | inhibition of growth at up to 200 µg/mL [3] | pest or weed control at 200 ppm [4] | inhibition of growth at up to 200 µg/mL [5]

Cc1cccc(/C(=N/OCC(C)(C)CO/N=C2\CCCc3ccc(C)nc32)c2ccccc2)n1 [E/E-2.474]
≥ 80%: inhibition of growth at up to 200 µg/mL [1] | pest or weed control at 200 ppm [2] | inhibition of growth at up to 200 µg/mL [3] | pest or weed control at 200 ppm [4] | inhibition of growth at up to 200 µg/mL [5]

Cc1ccc2c(n1)/C(=N/OCC(C)(C)CO/N=C/c1ccc3ccccc3n1)CCC2 [E/E-2.507]
≥ 80%: inhibition of growth at up to 200 µg/mL [1] | pest or weed control at 200 ppm [2] | inhibition of growth at up to 200 µg/mL [3] | inhibition of growth at up to 200 µg/mL [5]

C/C(=N\OCC(C)(C)CO/N=C1\CCCc2ccc(C)nc21)c1cccc(Br)n1 [E/E-2.508]
≥ 80%: inhibition of growth at up to 200 µg/mL [1] | pest or weed control at 200 ppm [2] | inhibition of growth at up to 200 µg/mL [3] | inhibition of growth at up to 200 µg/mL [5]

C=C(CO/N=C(\C)c1cccc(C)n1)CO/N=C1\CCCc2ccc(C)nc21 [E/E-3.002]
≥ 80%: inhibition of growth at up to 200 µg/mL [1] | pest or weed control at 200 ppm [2] | inhibition of growth at up to 200 µg/mL [3] | pest or weed control at 200 ppm [4]

C/C(=N\OCC1(CO/N=C2\CCCc3ccc(C)nc32)CC1)c1cc(C)cc(C)n1 [E/E-5.167]
≥ 80%: inhibition of growth at up to 200 µg/mL [1] | pest or weed control at 200 ppm [2] | inhibition of growth at up to 200 µg/mL [3] | pest or weed control at 200 ppm [4]
